In patent publication US4208426A, “Pyranochromone derivatives and therapeutic composition comprising same for treatment of allergic diseases” (Eisai Co., Ltd., priority 1977, dated 1980):

Columns and labels:
homologous PCA reaction = test: Homologous passive cutaneous anaphylaxis (PCA) reaction; assay type: in vivo, rat (SD (Sprague-Dawley) strain); conditions: rat; for Inhibition effect of PCA reaction: oral
Method: Anti-egg albumin rat serum in amount of 0.1 ml was intracutaneously injected to the shaved back of a mail rat of SD (Sprague-Dawley) strain weighing 200±30 g. The egg-albumin as antigen in amount of 5 mg/Kg were intravenously injected, together with 40 mg/Kg of dye (Evans blue) 24 hours after antiserum injection. The test materials were given at the respective times before antigen injection as 5% suspension in gum arabic in the case of oral administration (p. o.), while as a solution in physiological salt solution in the case of the intravenous injection (i. v.). The rat was sacrificed 30 minutes after the injection of the antigen, and the skin was removed. The amount of the dye leaked at the reaction locus was measured by extraction method according to Katayama et al.; Microbiol. Immunol. 22, 89-101 (1978), to determine the inhibiting rate on the homologous PCA reaction. There were elected, as the control, cromoglycate and ethyl 6,7-dihydro-6-methyl-8H-pyrano[3,2-g]chromone-2-carboxylate which are known in the art.
Regarding 6,7-dihydro-6,8,8,10-tetramethyl-8H-pyrano[3,2-g] chromone-2-carboxylic acid of this invention, there were determined, in the same manner, inhibition effect of PCA reaction when oral administration was carried out.

[1] = cited from earlier work
[2] = test system: actively sensitized rat peritoneal mast cells; test: Histamine release from actively sensitized rat peritoneal mast cells mediated by antigen-antibody reaction; assay type: cell-based, rat (SD strain); conditions: Mast cell, egg-albumine 10 μg/ml, 37° C., read-out: Inhibition rate of histamine release
Method: (2) Histamine release from actively sensitized rat peritoneal mast cells mediated by antigen-antibody reaction
A male rate of SD strain weighing 200-400 g was used in this experiment. The sensitization of rats was performed by the method according to Kusner et al.; J. Pharmcol. & Exper. Ther, 184, 41-44 (1973). The mast cells were isolated 14 days after the sensitization by the method according to Johnson, et al.; Am. J. Physiol. 216, 453-459 (1969). The number of the mast cells was adjusted to 2×10^5 /ml. Each one milliliter of the cell suspension was divisionally poured into siliconized test tubes, and placed in an incubator adjusted to 37° C. The egg-albumine, as antigen, was added thereto at the final concentration of 10 μg/ml. At the same time of the addition of antigen, there is added sodium 6,7-dihydro-6,8,8,10-tetramethyl-8H-pyrano[3,2-g] chromone-2-carboxylate according to this invention in the respective concentrations.
The amount of histamine released from the mast cells was determined fluorimetrically according to Suzuki's method [Keio Igaku, 50, 263-270 (1973) Japan].

Q: What does the source list for `Cc1c2c(cc3c(=O)cc(C(=O)O)oc13)C(C)CC(C)(C)O2` (stereo not shown) [6,7-Dihydro-6,8,8,10-tetramethyl-8H-pyrano [3,2-g] chromone-2-carboxylic acid]?
A: Inhibition effect of PCA reaction, dose dependence (homologous PCA reaction; oral administration): dose-dependent inhibiting effect; Time of administration before antigen with the most remarkable inhibition effect of PCA reaction (homologous PCA reaction; oral administration): 15 to 30 min; Inhibition effect of PCA reaction (homologous PCA reaction; 1 mg/Kg, before 5 minutes): 15.1%; Inhibition effect of PCA reaction (homologous PCA reaction; 3 mg/Kg, before 5 minutes): 54.8%; Inhibition effect of PCA reaction (homologous PCA reaction; 10 mg/Kg, before 2 minutes): 44.1%; Inhibition effect of PCA reaction (homologous PCA reaction; 10 mg/Kg, before 5 minutes (dose series)): 78.5%; Inhibition effect of PCA reaction (homologous PCA reaction; 10 mg/Kg, before 5 minutes (time-course series)): 62.2%; Inhibition effect of PCA reaction (homologous PCA reaction; 10 mg/Kg, before 15 minutes): 82.0%; Inhibition effect of PCA reaction (homologous PCA reaction; 10 mg/Kg, before 30 minutes): 84.3%; Inhibition effect of PCA reaction (homologous PCA reaction; 10 mg/Kg, before 60 minutes): 54.3%; Inhibition effect of PCA reaction (homologous PCA reaction; 30 mg/Kg, before 5 minutes): 90.3%

Q: With `O=C(O)c1cc(=O)c2c(OCC(O)COc3cccc4oc(C(=O)O)cc(=O)c34)cccc2o1` [Chromoglycate, reference compound] as the compound, how does the “Inhibition rate of PCA reaction” value (homologous PCA reaction; 6 mg/Kg i.v., at the same time) read?
A: The value was 88.6%.

Q: What about the “Inhibition rate of PCA reaction” value (homologous PCA reaction; 20 mg/Kg p.o., before one hour) of the same compound?
A: Its value is 0%.

Q: And the “Effect on oral administration” value [1]?
A: Its value is “not effective when it is orally administered”.

Q: For `CCOC(=O)c1cc(=O)c2c(C)c3c(c(C)c2o1)OC(C)(C)C(C)C3` (stereo not shown) [Ethyl 6,7-dihydro-5,7,8,8,10-pentamethyl-8H-pyrano[3,2-g]chromone-2-carboxylate], which “Inhibition rate of PCA reaction” value (homologous PCA reaction; 20 mg/Kg p.o., before one hour) is on record?
A: Its value is 47.9%.

Q: For `CCOC(=O)c1cc(=O)c2cc3c(c(C)c2o1)OC(C)(C)CC3C` (stereo not shown) [Ethyl 6,7-dihydro-6,8,8,10-tetramethyl-8H-pyrano [3,2-g] chromone-2-carboxylate], which “Inhibition rate of PCA reaction” value (homologous PCA reaction; 20 mg/Kg p.o., before one hour) is on record?
A: The value was 63.8%.

Q: For `CCOC(=O)c1cc(=O)c2c(C)c3c(c(CC)c2o1)OC(C)(C)CC3C` (stereo not shown) [Ethyl 6,7-dihydro-10-ethyl-5,6,8,8-tetramethyl-8H-pyrano[3,2-g]chromone-2-carboxylate], which “Inhibition rate of PCA reaction” value (homologous PCA reaction; 20 mg/Kg p.o., before one hour) is on record?
A: Its value is 64.4%.

Q: With `CCOC(=O)c1cc(=O)c2cc3c(c(OC)c2o1)OC(C)(C)CC3C` (stereo not shown) [Ethyl 6,7-dihydro-10-methoxy-6,8,8-trimethyl-8H-pyrano [3,2-g] chromone-2-carboxylate] as the compound, how does the “Inhibition rate of PCA reaction” value (homologous PCA reaction; 20 mg/Kg p.o., before one hour) read?
A: Its value is 62.2%.

Q: For `Cc1c2c(cc3c(=O)cc(C(=O)O)oc13)C(C)CC(C)(C)O2` (stereo not shown) [Sodium 6,7-dihydro-6,8,8,10-tetramethyl-8H-pyrano [3,2-g] chromone-2-carboxylate], which “Inhibition rate of PCA reaction” value (homologous PCA reaction; 0.4 mg/Kg i.v., at the same time) is on record?
A: Its value is 65.2%.

Q: And the “Inhibition rate of PCA reaction” value (homologous PCA reaction; 20 mg/Kg p.o., before one hour)?
A: Its value is 64.9%.

Q: And the inhibition at 0.2 µM ([2]; 0.2 μM)?
A: The inhibition at 0.2 µM was 48.2%.

Q: And the inhibition at 1 µM ([2]; 1.0 μM)?
A: The inhibition at 1 µM was 66.1%.

Q: What about the inhibition at 2 µM ([2]; 2.0 μM) of the same compound?
A: The inhibition at 2 µM was 73.2%.

Q: What about the inhibition at 10 µM ([2]; 10.0 μM) of the same compound?
A: Its inhibition at 10 µM is 60.7%.

Q: For `CCOC(=O)c1cc(=O)c2cc3c(cc2o1)OCCC3C` (stereo not shown) [ethyl 6,7-dihydro-6-methyl-8H-pyrano[3,2-g]chromone-2-carboxylate, reference compound], which “Inhibition rate of PCA reaction” value (homologous PCA reaction; 20 mg/Kg p.o., before one hour) is on record?
A: The value was 23.7%.
